Assay type in all cases: cell-based, murine
One assay relates to ERK. The experiment in a line: LPS-induced phosphorylation of ERK in RAW 264.7 cells (Western blot). The settings on record: KMU-470 1 μM 24 h pre-treatment, LPS 50 ng/mL. The procedure: Figure 5 Effect of KMU-470 on LPS-induced phosphorylation of MAPKs/ IKKs/ NF-κB in RAW 264.7 cells. (A) Cells were pre-treated with 1μM of KMU-470 for 24 h and stimulated with LPS (50 ng/mL) at the indicated times. (C) Cells were pre-treated with 0.5 and 1μM of KMU-470 for 30 min prior to LPS treatment. Total proteins were isolated after 6 h exposure to LPS (50 ng/mL). The protein expression level of MAPKs, p-IKKα/β, and p-NF-κB were assessed using Western blot analyses. (B,D) The relative optical densities of MAPKs, p-IKKα/β, and p-NF-κB bands were analyzed by the Image-J program. *** p < 0.001.
(§1) RAW 264.7 cells were pre-treated with KMU-470 (0.5–1 μM/mL) for 24 h and stimulated with LPS (50 ng/mL) for 6 h. After stimulation, total cells were harvested, washed with PBS buffer, and then the total protein was extracted with a RIPA buffer (0.1 mM sodium orthovanadate, 137 mM NaCl, 15 mM EGTA, 0.1% Triton X-100, 25 mM MOPS, 15 mM MgCl2, 100 μM phenylmethylsulfonyl fluoride, and 20 μM leupeptin, adjusted to pH 7.2). […] Immunoreactive proteins were detected using the ELC Western blot detection system kit (Millipore). Signal intensity was measured using the Chemi Image documentation system (Fusion Fx7, VILBER LOUTMAT). Protein expression levels were quantified using the Image J program.

The next assay has as its system iNOS protein. Put plainly: LPS-induced iNOS protein expression in RAW 264.7 cells (Western blot). Particulars: KMU-470 0.5 and 1 μM 30 min, LPS 1 μg/mL 24 h. On the procedure:
Figure 3 Inhibitory effect of KMU-470 on LPS-induced NO production and iNOS protein expression, and cell viability in RAW 264.7 cells. (A) The cells were pre-treated with KMU-470 at a concentration of 1 μM for 30 min and then treated with different concentrations of LPS for 24 h. Nitrite in the culture supernatant was collected and evaluated using Griess reagent. Absorbance was measured at 540 nm. *** p < 0.001, ** p < 0.01, * p < 0.05. (B) Cells are pre-treated with two different concentrations of KMU-470 (0.5 μM and 1 μM) for 30 min, followed by treatment with 1 μg/mL LPS for 24 h. β-actin was used as an internal control for Western blot analysis. (C) Image-J program was used to analyze the relative optical density of the iNOS band. (D) Cells were treated with various concentrations of KMU-470 for 24 h. […] (E) The cell proliferation rate was determined by cell count using a trypan blue exclusion assay. *p < 0.05 (F) Effect of KMU-470 on cell viability was measured by XTT assay. *** p < 0.001.
RAW 264.7 cells were pre-treated with KMU-470 (0.5–1 μM/mL) for 24 h and stimulated with LPS (50 ng/mL) for 6 h. […] Immunoreactive proteins were detected using the ELC Western blot detection system kit (Millipore). Signal intensity was measured using the Chemi Image documentation system (Fusion Fx7, VILBER LOUTMAT). Protein expression levels were quantified using the Image J program.

In another assay the test system is pro-IL-1β. Put plainly: LPS-induced pro-IL-1β protein expression in RAW 264.7 cells (Western blot). Particulars: KMU-470 0.1, 0.5, 1 μM 30 min, LPS 50 ng/mL 6 h. On the procedure: Figure 2 Effect of PIM inhibition on lipopolysaccharide (LPS)-mediated inflammatory response in RAW 264.7 cells. (A) RAW 264.7 cells transfected with negative siRNA or PIM-1 siRNA for 72 h and then treated with LPS (50 ng/mL) for 6 h. Whole cell lysates were isolated and used to measure the protein expression levels of PIM-1, pro-IL-1β, p-Bad, and β-actin by Western blot analysis. […] Total RNA was isolated, and used to measure the mRNA expression levels of IL-1b and β-actin by RT-PCR analysis. *** p < 0.001, ** p < 0.01.
Figure 6 Inhibitory effect of KMU-470 on LPS-induced up-regulation of pro-inflammatory cytokines and activation of NLRP3 inflammasome in RAW 264.7 cells. (A–C) Cells were treated with KMU-470 for 30 min and stimulated with LPS 50 ng/mL for 6 h. The levels of IL-1β, TNF-α, and IL-6 were determined using real time PCR. *** p < 0.001, *p < 0.05. (D) Cells were pre-treated with 0.1, 0.5, and 1 μM of KMU-470 for 30 min and treated with LPS 50 ng/mL for 6 h, respectively. […]
RAW 264.7 cells were pre-treated with KMU-470 (0.5–1 μM/mL) for 24 h and stimulated with LPS (50 ng/mL) for 6 h. […] Immunoreactive proteins were detected using the ELC Western blot detection system kit (Millipore). Signal intensity was measured using the Chemi Image documentation system (Fusion Fx7, VILBER LOUTMAT). Protein expression levels were quantified using the Image J program. […]

The next assay relates to TLR4. The experiment in a line: LPS-induced TLR4 protein expression in RAW 264.7 cells (Western blot). The settings on record: KMU-470 0.5 and 1 μM 30 min, LPS 6 h. The procedure: Figure 4 Inhibitory effect of KMU-470 on LPS-induced TLR4 and MyD88 protein expression in RAW 264.7 cells. (A,B) Cells were pre-treated with 0.5 and 1 μM of KMU-470 for 30 min prior to LPS treatment. Then, total protein was isolated after 6 h exposure to LPS. The protein expression level of TLR4 and MyD88 were assessed using Western blot analysis. (C,D) The relative optical densities of TLR4 and MyD88 bands were analyzed by the Image-J program. *** p < 0.001.
as §1, with “7.2). The cell culture media supernatants were precipitated using TCA (trichloroacetic acid, protocol by Luis Sanchez 2001). A BCA protein assay kit (Thermo Scientific, Wilmington, USA) was used for the determination of the protein concentration.” for “7.2).”

In the case of `CN(C)CCNc1cncc(-c2ccc3c(c2)/C(=C/c2cnc[nH]2)C(=O)N3)n1` [KMU-470, (Z)-3-((1H-Imidazol-5-yl)methylene)-5-(6-((2-(dimethylamino)ethyl)amino)pyrazin-2-yl)indolin-2-one], the “LPS-induced phosphorylation of ERK” value with ERK was “significantly inhibited”. Moreover, the “LPS-induced up-regulation of iNOS protein” value in the assay with iNOS protein is on record as “attenuated”. Further, the “LPS-induced up-regulation of IL-1β protein” value in the assay with pro-IL-1β (RAW 264.7 cells (Figure 6D)) is on record as “reduced”. Besides, the “Expression of pro-IL-1β protein compared with LPS alone group” value in the assay on pro-IL-1β (RAW 264.7 cells (Figure 6E)) is given as “marked decrease”. In addition, the “Up-regulation of TLR4 protein by LPS” value in the assay on TLR4 was “suppressed”.

Source of the values: publication PMC7403980, “Anti-Inflammatory Effects of the Novel PIM Kinase Inhibitor KMU-470 in RAW 264.7 Cells through the TLR4-NF-κB-NLRP3 Pathway” (International Journal of Molecular Sciences, 2020).
